Assay results: patent publication US6936615B2, “Heteroaryl derivatives and their use as medicaments” (Zentaris GmbH, priority 2000, dated 2005)

Tests used:
[1] = test system: murine lymphocyte leukaemia L1210 (ATCC CCL-219); test: XTT test for cellular dehydrogenase activity (proliferation test), L1210; format: cell-based; conditions: Mus musculus, values determined from 5 substance concentrations, 45 h incubation + 3 h XTT, read-out: XTT-Assay IC50 L1210 (in-vitro cytotoxicity)
Description: (§1) In a proliferation test, the antiproliferative activity of the substance D-43411 was examined using established tumor cell lines. In the test used, the cellular dehydrogenation activity is determined, which makes it possible to determine the vitality of the cell and, indirectly, the cell count. The cell lines used are the human cervical carcinoma cell lines KB/HeLa (ATCC/CCL17), the murine lymphocyte leukaemia L1210 (ATCC CCL-219), the human breast adenocarcinoma line MCF7/ATCC HTB22) and the ovary adenocarcinoma line SKOV-3 (ATCC HTB77). These are established cell lines which are very well characterized and were obtained from ATCC and cultured.
(§2) The adherently growing tumor cell lines HeLa/KB, SKOV-3 and MCF7 and the L1210 leukaemia line, which grows in suspension, were cultivated under standard conditions in an incubator with gas inlet at 37° C., 5% CO2 and 95% atmospheric humidity. […]
(§3) For the XTT assay, 1 mg/ml of XTT (sodium 3′-[1-(phenylaminocarbonyl)-3,4-tetrazolium]-bis(4-methoxy-6-nitro)benzenesulfonic acid) is dissolved in RPMI-1640 medium without Phenol Red. […] The cell plates are then incubated in the incubator with gas inlet for a further 3 h, and the optical density (OD490nm) is determined in a photometer.
(§4) Using the OD490nm obtained, the inhibition in percent relative to the control is calculated. […]

[2] = test system: human breast adenocarcinoma line MCF7 (ATCC HTB22); test: XTT test for cellular dehydrogenase activity (proliferation test), MCF7; format: cell-based; conditions: test period of 48 h
Description: as §1, §2, §3, §4

[3] = test system: ovary adenocarcinoma line SKOV-3 (ATCC HTB77); test: XTT test for cellular dehydrogenase activity (proliferation test), SKOV-3; format: cell-based; conditions: Homo sapiens, SK-OV-3, values determined from 5 substance concentrations, 45 h incubation + 3 h XTT, read-out: XTT-Assay IC50 SKOV-3 (in-vitro cytotoxicity)
Description: as §1, §2, §3, §4

[4] = test system: human cervical carcinoma cell lines KB/HeLa (ATCC/CCL17); test: XTT test for cellular dehydrogenase activity (proliferation test), KB/HeLa; format: cell-based; conditions: values determined from 5 substance concentrations, 45 h incubation + 3 h XTT, read-out: XTT-Assay IC50 KB/HeLa (in-vitro cytotoxicity)
Description: as §1, §2, §3, §4

Row | melting point | SMILES | IC50 [1] | IC50 ([2]; Homo sapiens, values determined from 5 substance concentrations, read-out: XTT-Assay IC50 MCF7 (in-vitro cytotoxicity)) | inhibition (antiproliferative effect) in MCF7 ([2]; at 3.16_g/ml) | IC50 [3] | IC50 [4]
1 | – | COc1cc(OC)cc(N2CCN(C(=O)C3c4ccccc4NC4C=CC=CC43)CC2)c1 [D-43411] | < 0.3 ng/mL | > 3160 ng/mL | 18% | < 0.3 ng/mL | < 0.3 ng/mL
2 | 146 to 148 °C | COc1cc(OC)cc(N2CCN(C(=O)c3ccnc4ccccc34)CC2)c1 | – | – | – | – | –
